Results reported in patent US9540405B2, “Diaminophenothiazinium derivatives for labelling biomolecules, method and substrate for labelling oligonucleotides, and oligonucleotides obtained” (UNIVERSITE CLAUDE BERNARD LYON I, priority 2012, dated 2017).

Assay: Stability study in basic medium (0.05M K2CO3 in methanol)
Assay type: physicochemical

SMILES	Stability after treatment in 0.05M K2CO3/MeOH (4 h)	Stability after treatment in 0.05M K2CO3/MeOH (17 h)
CCCCN(CCCC)c1ccc2nc3ccc(N(CCO)CCO)cc3[s+]c2c1.[I-] [Ra═Rb═butyl and Rc═Rd═ethanol, (dibutylamino)(diethanolamino)phenothiazinium iodide]	73%	25%
CCCCN(CCCCO)c1ccc2nc3ccc(N(CCCC)CCCCO)cc3[s+]c2c1.[I-] [Ra═Rc═butyl and Rb═Rd═butanol, bis(butylbutanolamino)phenothiazinium iodide]	91%	66%
